In PubChem BioAssay (NCI):
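Dose response: 5 concentrations. Exposure: 48 h. Format: 96-well plates. Endpoint: linear interpolation; highest concentration if not reached. GI50 marks 50% less growth. TGI is the concentration that stops growth completely.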

How the values were obtained:
Experiment in all cases: growth of human tumour cells (NCI), 48 h
CAKI-1 renal = tested on: CAKI-1 renal
COLO 205 colon = tested on: COLO 205 colon
DU-145 prostate = tested on: DU-145 prostate
M14 melanoma = tested on: M14 melanoma
NCI-H522 lung = tested on: NCI-H522 lung
OVCAR-3 ovarian = tested on: OVCAR-3 ovarian
OVCAR-8 ovarian = tested on: OVCAR-8 ovarian
RXF 393 renal = tested on: RXF 393 renal
SN12C renal = tested on: SN12C renal
T-47D breast = tested on: T-47D breast

| Compound | GI50 (CAKI-1 renal) [µM] | TGI (CAKI-1 renal) [µM] | GI50 (COLO 205 colon) [µM] | TGI (COLO 205 colon) [µM] | GI50 (DU-145 prostate) [µM] | TGI (DU-145 prostate) [µM] | GI50 (M14 melanoma) [µM] | TGI (M14 melanoma) [µM] | GI50 (NCI-H522 lung) [µM] | TGI (NCI-H522 lung) [µM] | GI50 (OVCAR-3 ovarian) [µM] | TGI (OVCAR-3 ovarian) [µM] | GI50 (OVCAR-8 ovarian) [µM] | TGI (OVCAR-8 ovarian) [µM] | GI50 (RXF 393 renal) [µM] | TGI (RXF 393 renal) [µM] | GI50 (SN12C renal) [µM] | TGI (SN12C renal) [µM] | GI50 (T-47D breast) [µM] | TGI (T-47D breast) [µM] |
| --- | --- | --- | --- | --- | --- | --- | --- | --- | --- | --- | --- | --- | --- | --- | --- | --- | --- | --- | --- | --- |
| O=C1C(Cl)=C(Nc2cccc(O)c2)C(=O)N1c1ccc(Cl)c(Cl)c1 | 22.8 | 59.1 | 32 | 89.9 | 19.3 | 42.1 | 18.9 | 37.4 | 30 | > 100 | 17.9 | 36.4 | 23.6 | 52.2 | 14.5 | 42.2 | 18.1 | 39.4 | 41 | > 100 |
| CC(=O)OC1CCC2(C)C(=CCC3C2CCC2(C)C(C(C)C(=O)O)CCC32)C1 (stereo unspecified) |  | > 100 |  | > 100 |  | > 100 |  | > 100 |  | > 100 |  | > 100 |  | > 100 |  | > 100 |  | > 100 |  | > 100 |
| C=C(CS(=O)(=O)c1ccccc1)[P+](c1ccccc1)(c1ccccc1)c1ccccc1 |  | 65.9 |  |  |  |  |  | 39.4 |  | 44.1 |  | 37.9 |  | 74.1 |  | 38.4 |  | 32.4 |  |  |
| COc1ccc(-c2nn(-c3cccc(NC(=O)Nc4cc(C(F)(F)F)cc(C(F)(F)F)c4)c3)cc2-c2ccncc2)cc1Cl | 1.07 | 9.44 | 0.894 | 1.74 | 1.96 | 9.76 | 0.913 | 2.51 | 0.837 | 2.64 | 0.68 | 4.56 | 1.13 | 22.5 | 0.849 | 2.4 | 1.27 | 7.95 | 1.07 | 7.17 |
| CC(=O)OC1C(CCl)OC(N=[N+]=[N-])C(OC(C)=O)C1OC(C)=O (stereo unspecified) |  | > 100 |  | > 100 |  |  |  | > 100 |  | > 100 |  | > 100 |  | > 100 |  | > 100 |  | > 100 |  |  |
| CC1=C(c2cc(C(=O)Nc3ccc(Cl)c(Cl)c3)nc(N)n2)Sc2ccccc2N1 |  | > 100 |  | > 100 |  |  |  | > 100 |  | > 100 |  | > 100 |  | > 100 |  | > 100 |  | > 100 |  |  |
| COc1c(CNC(=O)CCl)cc2[nH]c(C)cc2c1CNC(=O)CCl | 6.73 | 37 | 10.6 | 27.8 | 5.03 | 19.7 |  |  | 1.82 | 4.16 | 3.41 | 13 | 4.73 | 60.4 | 3.5 | 14.1 | 4.92 | 39.9 | 3.55 | 23.1 |
| CN(C)CCN=Cc1c2ccccc2c(=O)n2c1oc1ccccc12 | 3.62 | 15.2 |  |  | 2.97 | 14.5 | 15.2 | 31.2 | 16.5 | 38 | 11.7 | 24 | 5.89 | 21.5 | 12.7 | 28.6 | 3.81 | 17.1 |  |  |
| CCCCN(CCCC)CCCN=c1nc2c(c(N)n1-c1ccccc1)c(=S)n(-c1ccccc1)c(=S)n2-c1ccccc1 | 0.384 | 1.49 | 0.329 | 1.39 | 1.34 | 2.75 | 0.206 | 0.424 | 0.664 | 2.23 | 0.997 | 2.3 |  |  | 1.96 | 4.75 | 1.41 | 2.79 | 1.73 | 3.79 |
| COc1cc(C2CC(c3cc(C)ccc3C)=NN2c2ccc(S(=O)(=O)NC(=O)NCc3ccccc3)cc2)cc(OC)c1OC (stereo unspecified) | 3.17 | 19.9 |  |  | 6.05 | 30.8 |  |  | 3.55 | 21.6 | 2.42 | 5.4 | 3.77 | 32.4 | 2.9 | 8.17 | 3.15 | 18.1 | 4.19 | 30.1 |
| COc1ccc(C2=C(c3cc(OC)c(OC)c(OC)c3)C(=O)CC2)cc1 | 0.76 | > 100 | 0.218 | 1.17 | 0.294 |  | 0.107 | 4.01 | 0.0671 | 2.84 | 0.0598 | 0.242 | 0.392 | > 100 |  |  | 0.676 | > 100 | 24.6 | > 100 |
| CC(C)(C)[Si](C)(C)O/N=C\c1ccc(O[Si](C)(C)C(C)(C)C)cc1 |  | > 100 |  | > 100 |  |  |  | > 100 |  |  |  | 50.9 |  | > 100 |  | 63.7 |  | > 100 |  |  |
| N#CN1CCC[C@H]1C(=O)N1CCc2c(-c3[nH]nc4ncccc34)cccc21 | < 0.01 | 1.46 |  |  | 0.018 | 11.3 | < 0.01 | 0.354 | < 0.01 | 0.412 | < 0.01 | < 0.01 | < 0.01 | 11 | < 0.01 | 0.145 | < 0.01 | 48.2 | 0.0227 | 15 |
| COC(=O)[C@@]1(C)CC[C@]2(C)CC[C@]3(C)C4=CC=C5C(=CC(=O)C(O)=C5C)[C@]4(C)CC[C@@]3(C)[C@@H]2C1 |  |  | 0.182 | 0.437 | 0.182 | 0.382 | 0.198 | 0.49 | 0.18 | 0.435 | 0.169 | 0.325 |  |  | 0.176 | 0.33 | 0.201 | 0.507 |  |  |
| C=C1Oc2nc3ccccc3c(=O)n2C1(C)C |  | > 100 |  | > 100 |  |  |  | > 100 |  | > 100 |  | > 10 |  | > 100 |  |  |  | > 100 |  |  |
| O=C(O)C1c2ccccc2C(C(=O)O)c2ccccc21 (stereo unspecified) |  | > 100 |  | > 100 |  |  |  | > 100 |  | > 100 |  |  |  | > 100 |  | > 100 |  | > 100 |  |  |
